According to ChEMBL document CHEMBL1781926, “Synthesis of 1-naphtylpiperazine derivatives as serotoninergic ligands and their evaluation as antiproliferative agents” (Eur J Med Chem, 2011):

Test system: PC-3
Experiment: Induction of apoptosis in human PC3 cells at 15 uM after 72 hrs using propidium iodide staining by flow cytometry (reference value: 1.79 %)
Format: functional

SMILES	Activity [%]
O=c1c2ccccc2nnn1CCN1CCN(c2cccc3ccccc23)CC1	2.17
O=c1c2ccccc2nnn1CCCN1CCN(c2cccc3ccccc23)CC1	2.25
